Assay results from patent publication US9932300B2, “N,N′-diarylurea compounds and N,N′-diarylthiourea compounds as inhibitors of translation initiation” (President and Fellows of Harvard College, priority 2009, dated 2018).

Tested on: eIF2-GTP-Met-tRNAi ternary complex
Test: Ternary complex assay (dual luciferase, firefly/renilla ratio) in stable KLN-tTA/pBISA-DL(ATF-4) cells; HTS and hit confirmation
Type: cell-based, mouse
Set-up: Activity 10 uM / Activity 2.5 uM / Activity 5 uM: unit not given here
Settings: confirmed hits of the screen (Table 5); for Activity 2.5 uM: compound at 2.5 uM; for Activity 10 uM: compound at 10 uM; for Activity 5 uM: compound at 5 uM
Excerpt: For assay development, a bi-directional plasmid was designed in which a common promoter/enhancer complex drives the transcription of firefly luciferase (F-luc) ORF fused to the 5′ untranslated region (UTR) of ATF-4, and of the renilla luciferase (R-luc) ORF fused to a 90-nucleotide 5′ UTR derived from the plasmid (FIG. 6A). Because the tetracycline-regulated transactivator ((tTA), required for driving transcription from this vector) is not normally expressed in the mammalian cells, stable KLN cancer cells were constructed that expressed tTA (KLN-tTA).
The KLN-tTA colonies that drove expression of reporter genes from pBISA-DL plasmid were selected by transient transfection and dual luciferase assay. One of these KLN-tTA cell lines was transfected with the pBISA-DL^(ATF-4) expression vector, stable colonies were selected by dual luciferase assay and expanded. To determine if reduced availability of the eIF2*GTP*Met-tRNAi ternary complex increased the translation of firefly luciferase and decreased translation of renilla luciferase, selected KLN-tTA/pBISA-DL^(AFT-4) colonies were treated with thapsigargin (TG) or tunicamycin (TU), two agents known to cause phosphorylation of eIF2α.
This assay was then adapted for high throughput screening in 96 and 384 well plates. This was done by evaluating the cell density, length of exposure to compounds, DMSO tolerance and optimum firefly and renilla substrate. We then challenged these cells with thapsigargin or DMSO. […] Cell-based assays usually have higher variation than homogeneous in vitro assays due to position effect in the plate, and other variables associated with handling of cells and the plates.
Screening was conducted in 384 well white opaque plates (Nalge Nunc), 100 μl volume RPMI+10% fetal bovine serum. Cells were plated at the sub-confluent density of 10,000 cells/well, and allowed to attach for a period of 16-18 hours at 37° C., 5% CO2. Compounds were added as 1 μl of a 1 mM DMSO stock solution for a final screening concentration of 10 μM, using low-volume tips for transfer (Molecular Bioproducts). Cells were then incubated in the presence of compound for an additional sixteen hours, again at 37° C., 5% CO2. Following incubation 70 μl of the culture medium was removed from each well to allow for reagent addition and plates were allowed to equilibrate to room temperature for thirty minutes. Firefly luciferase reporter activity was then read by the addition of thirty microliters of Dual Glo Luciferase reagent (Promega), followed by one hour incubation at room temperature to allow for adequate signal buildup. Luminescence counting was conducted on a Microbeta Trilux using a 1 second read time. Renilla luciferase reporter activity was measured following addition of 30 μl Stop and Glo Luciferase reagent (Promega) and incubation identical to the one carried out for the firefly luciferase one.
Compound scores were interpreted as firefly luciferase activity divided by renilla luciferase activity, normalized to the plate's DMSO control. […] All data analysis was conducted using the BioAssay HTS software package (CambridgeSoft).
102,709 compounds in the NCI Open Chemical Repository were then screened using this HTS assay. […] Initial hits were confirmed by repeating the same dual luciferase assay in 96 well plates. Briefly, 20,000 cells/well were plated in triplicate for each concentration (10, 5 and 2.5 μM) of the compounds.

SMILES | Activity 2.5 uM | Activity 10 uM | Activity 5 uM
CCC[N+]1=C(/C=C/c2cc(C)c3cccnc3c2O)C(C)(C)c2ccccc21 [Compound 91815] | 3.3 | 15.17 | –
CC1=C/C(=C\C=C2/N(C)c3c(C)cccc3C2(C)C)C(=O)c2ncccc21 [Compound 91816] | 17.64 | 29.75 | –
Cc1ccc(O)c(-n2nc3ccccc3n2)c1 [Compound 91885] | – | 4.473 | 3.742
O=C1c2ccccc2C(=O)c2c1ccc1c2[nH]c2ccccc21 [Compound 92938] | 3.41 | 4.68 | –
COc1ccc(-c2coc3cc(O)ccc3c2=O)cc1 [Compound 93360] | – | 10.283 | 11.08
Cc1cc2c(C)c3cccc[n+]3cc2c2ccccc12.[O-][Cl+3]([O-])([O-])[O-] [Compound 93861] | – | 3.171 | 2.622
Cc1cc(/C=N/Nc2ccc3ccccc3n2)c(O)c2ncccc12 [Compound 94029] | – | 3.2135 | 1.934
O=C(OC1CC2CC1C1CC=CC21)c1ccc([N+](=O)[O-])cc1 (stereo not drawn) [Compound 94582] | – | 17.458 | 17.83
O=C(OC1CC2CC1C1CC3OC3C21)c1ccccc1 (stereo not drawn) [Compound 94585] | – | 3.525 | 3.148
COc1ccc([N+](=O)[O-])c(C(OC(C)=O)OC(C)=O)c1OC(C)=O [Compound 95832] | 0.46 | 3.2 | –
ClCCN(CCCl)c1ccc(C2N(Cc3ccccc3)c3ccccc3N2Cc2ccccc2)cc1 [Compound 96306] | – | 5.7 | 2.2
CN(CCCl)c1ccc(C2N(Cc3ccccc3)c3ccccc3N2Cc2ccccc2)cc1 [Compound 96375] | – | 5.9 | 2
CN(C)c1ccc(/C=C/c2nc3ccccc3[nH]2)cc1 [Compound 96942] | 4.17 | 7.54 | –
CCCCCCCCCCCCCCCCCC[S+](C)CC.[I-] (stereo not drawn) [Compound 97372] | 1.62 | 4.98 | –
Cl.Nc1cc2ccccc2c2c1ccc1ccccc12 [Compound 97681] | 1.17 | 8.98 | –
COc1ccc(C2(C)C(C#N)(C#N)C2(C#N)C#N)cc1 [Compound 98409] | – | 25.659 | 10.997
NP(Br)(c1ccccc1)(c1ccccc1)c1ccccc1 [Compound 99047] | – | 13.186 | 14.82
Oc1c(Cl)cc(Cl)cc1C1N(Cc2ccc(N(CCCl)CCCl)cc2)CCCN1Cc1ccc(N(CCCl)CCCl)cc1 [Compound 99639] | 0.7 | 8.32 | –
COc1ccc(C2=Cc3ccc(OC(C)=O)cc3OC2)cc1 [Compound 99696] | – | 3.4275 | 3.031
O=C(c1ccccc1)c1coc(-c2ccccc2)c1 [Compound 100239] | – | 7.6705 | 6.748
CCCCc1ccc2nc3cc4ccccc4cc3nc2c1 [Compound 100622] | 2.25 | 3.12 | –
COc1ccc(-c2cc3ccccc3[nH]2)cc1 [Compound 101082] | – | 5.896 | 4.772
Cc1ccc(-c2nc(-c3ccc(N=Cc4ccc(N(CCCl)CCCl)cc4C)cc3)cs2)cc1.Cl [Compound 101484] | – | 3.4 | 2.4
CCC(=O)Oc1c(Br)cc(C=O)cc1OC [Compound 101539] | – | 6.8175 | 14.033
C(=Nc1cnc2ccccc2c1)c1ccccn1 [Compound 101544] | – | 3.1185 | 2.767

SMILES | Activity 2.5 uM | Activity 10 uM | Activity 5 uM
CC(=O)OCC(OC(C)=O)C(OC(C)=O)C(/C=C/N=[N+]([O-])c1ccccc1)OC(C)=O (stereo not drawn) [Compound 102003] | 0.42 | 9.46 | –
CC[CH2][Pb]([CH2]CC)([CH2]CC)[O]C(C)=O [Compound 102516] | – | 3.4 | –
CC(=O)N(C)c1ccc(/C=C2\C=Cc3ccccc32)cc1 [Compound 103749] | 2.76 | 5.25 | –
COC1=C2C=[N+](C)C3C(=C2C=CC1OC)Cc1cc2c(cc13)OCO2.O=[N+](O)O (stereo not drawn) [Compound 103755] | – | 3.394 | 3.09
Ic1ccc(/C=N/Nc2nnc(N/N=C/c3ccc(I)cc3)c3ccccc23)cc1 [Compound 103842] | – | 3.3 | 2.6
O=C(Nc1cccc(Cl)c1)Nc1cc(C(F)(F)F)ccc1Cl [Compound 104498] | – | 8.4845 | 6.367
NC(=S)N/N=C\c1ncnc2ccccc12 [Compound 104959] | – | 5.474 | 5.19
O=C1C(c2c[nH]c3ccccc23)=Nc2ccc(Br)cc21 [Compound 105326] | 9.56 | – | –
Nc1ccc(N=Nc2ccccc2Cl)c(N)n1 [Compound 106208] | – | 4.3 | 1.8
Cc1ccc2nn(-c3ccc(O)cc3)nc2c1 [Compound 106291] | 2.7 | 3.15 | –
CCc1ccc(N=Nc2ccc(N(C)C)cc2)cc1 [Compound 106343] | – | 4.1 | 2.6
CCc1ccc(N=Nc2ccccc2)cc1 [Compound 106344] | – | 4.1 | 3.1
CCc1ccc(N=Nc2ccc(Br)cc2)cc1 [Compound 106378] | 2.55 | 3.69 | –
Cc1ccc(N=NC2C(=O)c3ccccc3C2=O)cc1 [Compound 106656] | 1.89 | 3.26 | –
C[C@]12CC[C@@H]3c4ccc(Oc5nc(N6CC6)nc(N6CC6)n5)cc4CC[C@H]3[C@@H]1CCC2=O [Compound 106909] | – | 3.4 | 1.2
C=CC(C)(C)c1c(OC(C)=O)cc2oc3c(OC(C)=O)c(OC(C)=O)cc(CC=C(C)C)c3c(=O)c2c1O [Compound 107229] | 1.06 | 3.14 | –
COc1cccc(N=Nc2ccc(N(C)C)cc2)c1 [Compound 108310] | 3.62 | 4.88 | –
CC(C)(C)NC/C(=C\c1ccccc1)C(=O)c1ccccc1 [Compound 109156] | – | 9.1 | 6.2
CCN(CC)CCCNc1c2ccccc2nc2ccccc12.Cl.Cl [Compound 109326] | 0.69 | 17.89 | –
Cc1cc(N(C)C)cc(C)c1C(=Nc1ccc(N=C(NO)c2c(C)cc(N(C)C)cc2C)cc1)NO.Cl [Compound 109535] | – | 6.3 | 3.9
Clc1ccc(-c2cc(C3CO3)c3cc(Cl)cc(Cl)c3n2)cc1 (stereo not drawn) [Compound 112369] | – | 3.1 | 1.4
c1ccc(-c2cc3ccccc3[nH]2)nc1 [Compound 112668] | – | 3.3905 | 2.854
CC(=O)Oc1cccc2cc3cc(C)cc(OC(C)=O)c3c(OC(C)=O)c12 [Compound 112921] | 97.42 | 242.82 | –
c1ccc2c(c1)cnc1cc3c(cc12)ncc1ccccc13 [Compound 113085] | 3.18 | 5.05 | –
